Calls of active or inactive are those of the source. No rule for the calls is given here.
System: CCRIS mutagenicity, Ames/micronucleus/aberration tests
Experiment: CCRIS mutagenicity studies
[1] = Test System: AMES SALMONELLA TYPHIMURIUM, Strain/Indicator: TA98, Metabolic Activation: NONE, Method: PREINCUBATION
[2] = Test System: AMES SALMONELLA TYPHIMURIUM, Strain/Indicator: TA100, Metabolic Activation: NONE, Method: PREINCUBATION
[3] = Test System: AMES SALMONELLA TYPHIMURIUM, Strain/Indicator: TA1535, Metabolic Activation: NONE, Method: PREINCUBATION
[4] = Test System: AMES SALMONELLA TYPHIMURIUM, Strain/Indicator: TA1537, Metabolic Activation: NONE, Method: PREINCUBATION

Measured: mutagenic call

Nc1ccc(Sc2ccc(N)cc2)cc1
active: Test System: AMES SALMONELLA TYPHIMURIUM, Strain/Indicator: TA97, Metabolic Activation: HAMSTER, LIVER, S-9, AROCLOR 1254 (10%), Method: PREINCUBATION active; positive | Test System: AMES SALMONELLA TYPHIMURIUM, Strain/Indicator: TA97, Metabolic Activation: RAT, LIVER, S-9, AROCLOR 1254 (10%), Method: PREINCUBATION active; positive | Test System: AMES SALMONELLA TYPHIMURIUM, Strain/Indicator: TA98, Metabolic Activation: HAMSTER, LIVER, S-9, AROCLOR 1254 (10%), Method: PREINCUBATION active; positive | Test System: AMES SALMONELLA TYPHIMURIUM, Strain/Indicator: TA98, Metabolic Activation: RAT, LIVER, S-9, AROCLOR 1254 (10%), Method: PREINCUBATION active; positive | Test System: AMES SALMONELLA TYPHIMURIUM, Strain/Indicator: TA98, Metabolic Activation: RAT, LIVER, S-9, PCB, Method: PREINCUBATION active; positive | Test System: AMES SALMONELLA TYPHIMURIUM, Strain/Indicator: TA100, Metabolic Activation: HAMSTER, LIVER, S-9, AROCLOR 1254 (10%), Method: PREINCUBATION active; positive | [2] active; positive | Test System: AMES SALMONELLA TYPHIMURIUM, Strain/Indicator: TA100, Metabolic Activation: RAT, LIVER, S-9, AROCLOR 1254 (10%), Method: PREINCUBATION active; positive | Test System: AMES SALMONELLA TYPHIMURIUM, Strain/Indicator: TA100, Metabolic Activation: RAT, LIVER, S-9, PCB, Method: PREINCUBATION active; positive
inactive: Test System: AMES SALMONELLA TYPHIMURIUM, Strain/Indicator: TA97, Metabolic Activation: NONE, Method: PREINCUBATION inactive; negative | [1] inactive; negative | Test System: AMES SALMONELLA TYPHIMURIUM, Strain/Indicator: TA1535, Metabolic Activation: HAMSTER, LIVER, S-9, AROCLOR 1254 (10%), Method: PREINCUBATION inactive; negative | [3] inactive; negative | Test System: AMES SALMONELLA TYPHIMURIUM, Strain/Indicator: TA1535, Metabolic Activation: RAT, LIVER, S-9, AROCLOR 1254 (10%), Method: PREINCUBATION inactive; negative | Test System: AMES SALMONELLA TYPHIMURIUM, Strain/Indicator: TA1537, Metabolic Activation: HAMSTER, LIVER, S-9, AROCLOR 1254 (10%), Method: PREINCUBATION inactive; negative | [4] inactive; negative | Test System: AMES SALMONELLA TYPHIMURIUM, Strain/Indicator: TA1537, Metabolic Activation: RAT, LIVER, S-9, AROCLOR 1254 (10%), Method: PREINCUBATION inactive; negative

COP(=S)(OC)Oc1ccc(N)c(C)c1
active: Test System: AMES SALMONELLA TYPHIMURIUM, Strain/Indicator: TA100, Metabolic Activation: RAT, LIVER, S-9, AROCLOR 1254, Method: STANDARD PLATE active; positive
inactive: Test System: AMES SALMONELLA TYPHIMURIUM, Strain/Indicator: TA98, Metabolic Activation: NONE, Method: STANDARD PLATE inactive; negative | Test System: AMES SALMONELLA TYPHIMURIUM, Strain/Indicator: TA98, Metabolic Activation: RAT, LIVER, S-9, AROCLOR 1254, Method: STANDARD PLATE inactive; negative | Test System: AMES SALMONELLA TYPHIMURIUM, Strain/Indicator: TA100, Metabolic Activation: NONE, Method: STANDARD PLATE inactive; negative

C1CCCNCC1
inactive: [1] inactive; negative | Test System: AMES SALMONELLA TYPHIMURIUM, Strain/Indicator: TA98, Metabolic Activation: RAT LIVER S-9, PHENOBARBITAL AND BETA-NAPHTHOFLAVONE, Method: PREINCUBATION inactive; negative | [2] inactive; negative | Test System: AMES SALMONELLA TYPHIMURIUM, Strain/Indicator: TA100, Metabolic Activation: RAT LIVER S-9, PHENOBARBITAL AND BETA-NAPHTHOFLAVONE, Method: PREINCUBATION inactive; negative | [3] inactive; negative | Test System: AMES SALMONELLA TYPHIMURIUM, Strain/Indicator: TA1535, Metabolic Activation: RAT LIVER S-9, PHENOBARBITAL AND BETA-NAPHTHOFLAVONE, Method: PREINCUBATION inactive; negative | [4] inactive; negative | Test System: AMES SALMONELLA TYPHIMURIUM, Strain/Indicator: TA1537, Metabolic Activation: RAT LIVER S-9, PHENOBARBITAL AND BETA-NAPHTHOFLAVONE, Method: PREINCUBATION inactive; negative | Test System: E.COLI, Strain/Indicator: WP2UVRA, Metabolic Activation: NONE, Method: PREINCUBATION inactive; negative | Test System: E.COLI, Strain/Indicator: WP2UVRA, Metabolic Activation: RAT LIVER S-9, PHENOBARBITAL AND BETA-NAPHTHOFLAVONE, Method: PREINCUBATION inactive; negative
